Values of other authors in US20070032555A1, “Novel aryloxyphenyl-propanamines” (priority 2005, published 2007).

What was measured:
[1] = tested on: 6-hydroxydopamine-lesion rats
[2] = humans, FDA Talk Paper T04-60

SMILES: CNCC[C@@H](Oc1ccccc1C)c1ccccc1 [Compound 1, (R)-N-methyl-3-phenyl-3-(o-tolyloxy)propan-1-amine]
- half life (CYP2D6 poor metabolisers (PM)): 62 h
- mean half life (healthy volunteers, CYP2D6 extensive metabolizers (EM)): 18 h
- increase of total exposure, measured as AUC0-τ (poor metabolisers (PM) versus extensive metabolizers (EM)): 8-10 fold
- motor hyperactivity [1]: reductions in their motor hyperactivity
- hepatotoxicity [2]: rare but very severe hepatotoxicity
